Source: ChEMBL document CHEMBL1134081, “MEK (MAPKK) inhibitors. Part 2: structure-activity relationships of 4-anilino-3-cyano-6,7-dialkoxyquinolines” (Bioorg Med Chem Lett, 2001)

Legend:
[1] = target: T1, Dual specificity mitogen-activated protein kinase kinase 1 (Homo sapiens, UniProt Q02750); assay: Inhibitory activity against Dual specificity mitogen-activated protein kinase kinase using coupled MEK assay (which uses activated Raf to activate an inactivate GST-MEK)
[2] = target: T1, Dual specificity mitogen-activated protein kinase kinase 1; assay: Inhibitory activity against Dual specificity mitogen-activated protein kinase kinase using direct MEK assay (which by-passes the need for activated Raf by using an activated GST-MEK)
LoVo = assay: Inhibition of LoVo human colon tumor cell proliferation
[3] = target: T1, Dual specificity mitogen-activated protein kinase kinase 1; assay: Inhibition of Dual specificity mitogen-activated protein kinase kinase in coupled activated Raf/MEK assay
[4] = target: T1, Dual specificity mitogen-activated protein kinase kinase 1; assay: Inhibition of Dual specificity mitogen-activated protein kinase kinase in direct activated MEK assay

T1 sequence (Q02750 whole entry): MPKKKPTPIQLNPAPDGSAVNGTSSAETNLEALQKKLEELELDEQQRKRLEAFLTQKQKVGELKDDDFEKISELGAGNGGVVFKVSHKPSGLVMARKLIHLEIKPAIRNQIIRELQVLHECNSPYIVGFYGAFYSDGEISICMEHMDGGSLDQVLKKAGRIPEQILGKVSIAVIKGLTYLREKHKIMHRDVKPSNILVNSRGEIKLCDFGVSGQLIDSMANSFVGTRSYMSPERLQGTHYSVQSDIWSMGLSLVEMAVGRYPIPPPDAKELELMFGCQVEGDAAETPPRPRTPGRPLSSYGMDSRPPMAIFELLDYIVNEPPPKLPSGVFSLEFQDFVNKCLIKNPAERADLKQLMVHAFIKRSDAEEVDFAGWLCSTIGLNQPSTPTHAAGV

COc1cc2ncc(C#N)c(Nc3ccc(Oc4ccc(Cl)cc4)cc3)c2cc1OC
IC50 [1]: 43 nM
IC50 [2]: 210 nM

COc1cc2c(Nc3ccc(Cc4ccccc4)cc3)c(C#N)cnc2cc1OCCCN1CCOCC1
IC50 [1]: 2.7 nM
IC50 [2]: 14 nM
IC50 (LoVo): 210 nM

COc1cc2c(Nc3ccc(Oc4ccccc4)cc3)c(C#N)cnc2cc1OCCCN1CCOCC1
IC50 [1]: 2.4 nM

COc1cc2c(Nc3ccc(Cc4cccs4)cc3)c(C#N)cnc2cc1OCCCN1CCOCC1
IC50 [1]: 4.4 nM
IC50 [2]: 20 nM

COc1cc2ncc(C#N)c(Nc3ccc(O)cc3)c2cc1OC
IC50 [1]: 550 nM
IC50 [2]: 2200 nM

COc1cc2c(Nc3ccc(Sc4ccccc4)cc3)c(C#N)cnc2cc1OCCCN1CCOCC1
IC50 [1]: 1.1 nM
IC50 [2]: 5.7 nM
IC50 (LoVo): 220 nM

COc1cc2c(Nc3ccc(CCc4ccccc4)cc3)c(C#N)cnc2cc1OCCCN1CCOCC1
IC50 [3]: 33 nM
IC50 [4]: 150 nM

COc1cc2c(Nc3ccc(SC4CCCCC4)cc3)c(C#N)cnc2cc1OCCCN1CCOCC1
IC50 [1]: 21 nM
IC50 [2]: 300 nM

COc1cc2c(Nc3ccc(Cc4ccoc4)cc3)c(C#N)cnc2cc1OCCCN1CCOCC1
IC50 [1]: 14 nM
IC50 [2]: 43 nM

COc1cc2ncc(C#N)c(Nc3ccccc3Oc3ccccc3)c2cc1OC
IC50 [1]: > 10000 nM
IC50 [2]: > 10000 nM

COc1cc2c(Nc3ccc(Cc4ccsc4)cc3)c(C#N)cnc2cc1OCCCN1CCOCC1
IC50 [1]: 4.2 nM
IC50 [2]: 23 nM

COc1cc2c(Nc3ccc(Cc4ccco4)cc3)c(C#N)cnc2cc1OCCCN1CCOCC1
IC50 [1]: 20 nM
IC50 [2]: 66 nM

COc1cc2ncc(C#N)c(Nc3ccc(SC)cc3)c2cc1OC
IC50 [1]: 280 nM
IC50 [2]: 1300 nM

COc1cc2c(Nc3ccc(OC4CCCCC4)cc3)c(C#N)cnc2cc1OCCCN1CCOCC1
IC50 [1]: 110 nM
IC50 [2]: 320 nM

COc1cc2ncc(C#N)c(Nc3ccc(Nc4ccccc4)cc3)c2cc1OC
IC50 [1]: 160 nM
IC50 [2]: 1200 nM

COc1cc2c(Nc3ccc(Oc4ccncc4)cc3)c(C#N)cnc2cc1OCCCN1CCOCC1
IC50 [1]: 26 nM
IC50 [2]: 81 nM

COc1cc2c(Nc3ccc(CC4CCCCC4)cc3)c(C#N)cnc2cc1OCCCN1CCOCC1
IC50 [1]: 200 nM
IC50 [2]: 3300 nM

COc1ccc(Nc2c(C#N)cnc3cc(OC)c(OC)cc23)cc1
IC50 [1]: 520 nM
IC50 [2]: 3000 nM

COc1ccc(Nc2c(C#N)cnc3cc(OCCCN4CCOCC4)c(OC)cc23)cc1
IC50 [1]: 99 nM
IC50 [2]: 250 nM
